Earlier results on one substance are cited in patent US20160074320A1, “PHARMACEUTICAL COMPOSTIONS COMPRISING KISSPEPTIN OR DERIVATIVES THEREOF” (OURO FINO SAÚDE ANIMAL LTDA, priority 2013, published 2016).

Ends that are not written are not given here.

Data set [1] has as its system sheep. To be noted: sheep in anestrus, low and sustained (30 to 48 h) doses IV.
For data set [2], the system named is sheep. To be noted: Kp-10 applied 30 h after removal of intra-vaginal progesterone device (CIDR).

In the case of “Kp-10: 10 amino acid fragment cleaved from kisspeptin, the 145 amino acid protein encoded by Kiss-1 gene (YNWNSFGLRF; ends and bridges not checked; UniProt Q15726 112-121, looked up, fragment)”, the hormone release entry in the data set on prepubertal heifers (IV administration) is “induces the release of LH and growth hormone (GH)”. For the same substance, the “LH pulses (Redmond and collaborators)” value in the data set with prepubertal heifers (IV injections) was “increase of frequency and amplitude of the pulses of LH”. The “ovulation, share of animals” value in the data set with sheep [1] is “more than 80%”. Further, the “peak of LH, time after removal of CIDR” value in the data set with sheep [2] is about 32 h.
